The text below walks through data of publication PMC3782081 (Cell, 2012).

Common to all, as to type: cell-based
Test [1] concerns the target T1, UCP1 (uncoupling protein 1) (Mus musculus, UniProt P12242).
T1 sequence (P12242 1-307): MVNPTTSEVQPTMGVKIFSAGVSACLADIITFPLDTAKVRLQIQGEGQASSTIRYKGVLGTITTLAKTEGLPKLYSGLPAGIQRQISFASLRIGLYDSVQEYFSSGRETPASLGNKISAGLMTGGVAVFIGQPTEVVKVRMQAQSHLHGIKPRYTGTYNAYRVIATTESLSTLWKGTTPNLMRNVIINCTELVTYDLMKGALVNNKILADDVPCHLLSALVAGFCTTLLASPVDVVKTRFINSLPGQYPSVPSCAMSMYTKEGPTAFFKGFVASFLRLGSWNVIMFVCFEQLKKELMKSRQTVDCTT
Put plainly: whole-mitoplast patch-clamp, inhibition of IUCP1 reactivated with exogenous OA. The settings on record: read-out: % inhibition at 50 μM. On the technique in general: In patch-clamp work, channel activity is measured electrically.

The target of test [2] is T1, UCP1 (uncoupling protein 1). Put plainly: whole-mitoplast patch-clamp, inhibition by […] in the bath. The settings on record: read-out: % inhibition at 4 μM.
Test [3] shares this target. Put plainly: whole-mitoplast patch-clamp, inhibition by […] GDP in the bath.

The inhibition is the relative decrease from the control value, in per cent.

Consider `O=C1NC(=O)/C(=C/c2ccc(C(=O)NC[C@@H]3C[C@@H](SC(c4ccccc4)(c4ccccc4)c4ccccc4)CN3C(=O)c3ccccc3C(=O)c3ccc(F)cc3F)cc2)S1` [pyrrophenone], for which the inhibition at 50 µM in test [1] is 77%. In the case of `CCCCCCCC/C=C\CCCCCCCC(=O)SCCNC(=O)CCNC(=O)[C@H](O)C(C)(C)COP(=O)(O)OP(=O)(O)OC[C@H]1O[C@@H](n2cnc3c(N)ncnc32)[C@H](O)[C@@H]1OP(=O)(O)O` [oleoyl-CoA], in test [2], the inhibition at 4 µM stood at 92%. As for `Nc1nc2c(ncn2[C@@H]2O[C@H](COP(=O)(O)OP(=O)(O)O)[C@@H](O)[C@H]2O)c(=O)[nH]1` [GDP], in test [3], the “whole-mitoplast patch-clamp, inhibition by 1 mM GDP in the bath” value is recorded as “elicited a large-amplitude current that was strongly inhibited by the classic UCP1 inhibitor GDP (Figure 1B)”.
